Experiments:
[1] = test system: MV4-11 cells; test: MV4-11 cellular proliferative assay, Assay Format A (CellTiter-Glo, 120 h); format: cell-based; settings: Homo sapiens, Assay format A, 120 h, read-out: IC50 (MV4-11 cellular proliferative assay)
Experimental: An MV4-11 proliferation assay was used to test the ability of compounds to reduce cell viability. MV4-11 cells (ATCC #CRL9591) were grown in IMDM medium (11510596, Gibco) supplemented with 10% fetal bovine serum (F7524, Gibco) and 1% Penicillin/Streptomycin (15140-122, Gibco) at 37° C. with 5% CO2. Cells were seeded in 384-well Elplasia plates (4447, Corning) at a density of 50 cells/well and treated with vehicle (DMSO) or compounds (10 serial semi-log dilutions, 30 μM as top concentration).
After 120 hours of treatment, cells were incubated for 10 min at RT with the CellTiter-Glo (CTG) reagent (G7571, Promega). Measurement of the luminescence signal was performed on a microplate reader (Ensight, PerkinElmer). CTG reagent measures the amount of ATP, which is directly proportional to the number of cells, to determine the number of viable cells in culture.
The data were analysed as follows:
[formula] • where x is the measured raw signal value of a well, (cr) is the median of the measured signal values for the Central Reference (DMSO) wells on a plate, (sr) is the median of the measured signal values for the Scale Reference (reference compound) wells on a plate.
[formula] • where the experimental set-up assumes the Hill parameters in certain ranges: S0~Central Reference (CR) from normalization (=Bottom), Sinf~Scale Reference (SR) from normalization (=Top), nHill ~1, AC50~within the measured concentration range.

[2] = biological target: T1, MLLT1 (Homo sapiens, UniProt Q03111); test: MLLT1 degradation assay in MV4-11 cells (JESS, 24 h); format: cell-based; design: endogenous in cells; host or cells: MV4-11 (ATCC CRL-9591); settings: vs DMSO control
T1 sequence (Q03111 1-559): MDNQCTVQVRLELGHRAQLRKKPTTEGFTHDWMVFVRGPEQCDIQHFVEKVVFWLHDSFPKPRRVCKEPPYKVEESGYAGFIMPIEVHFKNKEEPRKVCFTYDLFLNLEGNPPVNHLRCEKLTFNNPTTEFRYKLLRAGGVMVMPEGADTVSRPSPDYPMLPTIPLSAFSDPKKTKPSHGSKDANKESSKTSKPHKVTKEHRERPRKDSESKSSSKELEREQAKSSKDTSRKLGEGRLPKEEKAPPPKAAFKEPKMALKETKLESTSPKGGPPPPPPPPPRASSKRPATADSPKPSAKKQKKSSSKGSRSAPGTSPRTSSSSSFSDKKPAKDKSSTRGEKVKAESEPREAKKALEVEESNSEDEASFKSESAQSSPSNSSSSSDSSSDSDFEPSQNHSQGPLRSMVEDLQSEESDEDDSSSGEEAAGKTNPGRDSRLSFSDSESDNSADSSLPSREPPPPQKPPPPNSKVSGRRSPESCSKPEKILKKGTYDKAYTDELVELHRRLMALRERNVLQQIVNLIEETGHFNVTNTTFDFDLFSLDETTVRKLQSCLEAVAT
Procedure, shortened: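 MV4-11 cells treated at 1000, 100 and 10 nM (0.1% DMSO) for 24 h at 37° C; lysates (4 ug protein) run on JESS capillary immunoassay with MLLT1 and GAPDH antibodies. Peak areas give % degradation versus DMSO, binned A (≥75%) to D (<25%).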

CN1CCC[C@@H]1c1cc2cnc(NC(=O)c3ccc4c(cnn4CCCCCCCC#Cc4cccc5c4CN(C4CCC(=O)NC4=O)C5=O)c3)cc2[nH]1 (stereo partly drawn) [Example 38, 1-(9-(2-(2,6-dioxopiperidin-3-yl)-1-oxoisoindolin-4-yl)non-8-yn-1-yl)-N-(2-((R)-1-methylpyrrolidin-2-yl)-1H-pyrrolo[3,2-c]pyridin-6-yl)-1H-indazole-5-carboxamide]
IC50 [1]: < 0.1 µM
MLLT1% Degradation @ 0.01 μM [2]: B (Category B: 50%≤B<75% degradation)
MLLT1% Degradation @ 0.1 μM [2]: A (Category A: A≥75% degradation)
MLLT1% Degradation @ 1 μM [2]: B (Category B: 50%≤B<75% degradation)

Cc1nn(CCOCCOCCNc2cccc3c2C(=O)N(C2CCC(=O)NC2=O)C3=O)c2cc(C(=O)Nc3cc4[nH]c([C@H]5CCCN5C)cc4cn3)ccc12 (stereo partly drawn) [Example 25, 1-(2-(2-(2-((2-(2,6-dioxopiperidin-3-yl)-1,3-dioxoisoindolin-4-yl)amino)ethoxy)ethoxy)ethyl)-3-methyl-N-(2-((R)-1-methylpyrrolidin-2-yl)-1H-pyrrolo[3,2-c]pyridin-6-yl)-1H-indazole-6-carboxamide]
IC50 [1]: < 0.1 µM
MLLT1% Degradation @ 0.1 μM [2]: A (Category A: A≥75% degradation)
MLLT1% Degradation @ 1 μM [2]: A (Category A: A≥75% degradation)

Cc1nn(CCCCCCNc2cccc3c2C(=O)N(C2CCC(=O)NC2=O)C3=O)c2cc(C(=O)Nc3cc4[nH]c([C@H]5CCCN5C)cc4cn3)ccc12 (stereo partly drawn) [Example 22, 1-(6-{[2-(2,6-dioxopiperidin-3-yl)-1,3-dioxoisoindol-4-yl]amino}hexyl)-3-methyl-N-{2-[(2R)-1-methylpyrrolidin-2-yl]-1H-pyrrolo[3,2-c]pyridin-6-yl}indazole-6-carboxamide]
IC50 [1]: < 0.1 µM
MLLT1% Degradation @ 0.01 μM [2]: A (Category A: A≥75% degradation)
MLLT1% Degradation @ 0.1 μM [2]: A (Category A: A≥75% degradation)
MLLT1% Degradation @ 1 μM [2]: A (Category A: A≥75% degradation)

Cc1nn(CCCCNc2cccc3c2C(=O)N(C2CCC(=O)NC2=O)C3=O)c2cc(C(=O)Nc3cc4[nH]c([C@H]5CCCN5C)cc4cn3)ccc12 (stereo partly drawn) [Example 21, 1-(4-((2-(2,6-dioxopiperidin-3-yl)-1,3-dioxoisoindolin-4-yl)amino)butyl)-3-methyl-N-(2-((R)-1-methylpyrrolidin-2-yl)-1H-pyrrolo[3,2-c]pyridin-6-yl)-1H-indazole-6-carboxamide]
IC50 [1]: < 0.1 µM
MLLT1% Degradation @ 0.01 μM [2]: A (Category A: A≥75% degradation)
MLLT1% Degradation @ 0.1 μM [2]: A (Category A: A≥75% degradation)
MLLT1% Degradation @ 1 μM [2]: A (Category A: A≥75% degradation)

Cc1nn(CCCC#Cc2cccc3c2CN(C2CCC(=O)NC2=O)C3=O)c2cc(C(=O)Nc3cc4[nH]c([C@H]5CCCN5C)cc4cn3)ccc12 (stereo partly drawn) [Example 32, 1-(5-(2-(2,6-dioxopiperidin-3-yl)-1-oxoisoindolin-4-yl)pent-4-yn-1-yl)-3-methyl-N-(2-((R)-1-methylpyrrolidin-2-yl)-1H-pyrrolo[3,2-c]pyridin-6-yl)-1H-indazole-6-carboxamide]
IC50 [1]: < 0.1 µM
MLLT1% Degradation @ 0.01 μM [2]: B (Category B: 50%≤B<75% degradation)
MLLT1% Degradation @ 0.1 μM [2]: A (Category A: A≥75% degradation)
MLLT1% Degradation @ 1 μM [2]: B (Category B: 50%≤B<75% degradation)

Cc1nn(CCCCCCCCNc2ccc3c(c2)C(=O)N(C2CCC(=O)NC2=O)C3=O)c2cc(C(=O)Nc3cc4[nH]c([C@@H]5CCCN5C)cc4cn3)ccc12 (stereo partly drawn) [Example 15, 1-(8-{[2-(2,6-dioxopiperidin-3-yl)-1,3-dioxoisoindol-5-yl]amino}octyl)-3-methyl-N-{2-[(2S)-1-methylpyrrolidin-2-yl]-1H-pyrrolo[3,2-c]pyridin-6-yl}indazole-6-carboxamide]
IC50 [1]: < 0.1 µM
MLLT1% Degradation @ 0.01 μM [2]: D (Category D: D<25% degradation)
MLLT1% Degradation @ 0.1 μM [2]: A (Category A: A≥75% degradation)
MLLT1% Degradation @ 1 μM [2]: A (Category A: A≥75% degradation)

Cc1nn(CCCCCCCCNc2cccc3c2CN(C2CCC(=O)NC2=O)C3=O)c2cc(C(=O)Nc3cc4[nH]c([C@H]5CCCN5C)cc4cn3)ccc12 (stereo partly drawn) [Example 16, 1-(8-{[2-(2,6-dioxopiperidin-3-yl)-1-oxo-3H-isoindol-4-yl]amino}octyl)-3-methyl-N-{2-[(2R)-1-methylpyrrolidin-2-yl]-1H-pyrrolo[3,2-c]pyridin-6-yl}indazole-6-carboxamide]
IC50 [1]: < 0.1 µM
MLLT1% Degradation @ 0.01 μM [2]: A (Category A: A≥75% degradation)
MLLT1% Degradation @ 0.1 μM [2]: A (Category A: A≥75% degradation)
MLLT1% Degradation @ 1 μM [2]: A (Category A: A≥75% degradation)

Cc1nn(CCOCCNc2cccc3c2C(=O)N(C2CCC(=O)NC2=O)C3=O)c2cc(C(=O)Nc3cc4[nH]c([C@H]5CCCN5C)cc4cn3)ccc12 (stereo partly drawn) [Example 26, 1-(2-(2-((2-(2,6-dioxopiperidin-3-yl)-1,3-dioxoisoindolin-4-yl)amino)ethoxy)ethyl)-3-methyl-N-(2-((R)-1-methylpyrrolidin-2-yl)-1H-pyrrolo[3,2-c]pyridin-6-yl)-1H-indazole-6-carboxamide]
IC50 [1]: < 0.1 µM
MLLT1% Degradation @ 0.1 μM [2]: A (Category A: A≥75% degradation)
MLLT1% Degradation @ 1 μM [2]: A (Category A: A≥75% degradation)

Cc1nn(CCCCCC#Cc2cccc3c2n(C)c(=O)n3C2CCC(=O)NC2=O)c2cc(C(=O)Nc3cc4[nH]c([C@H]5CCCN5C)cc4cn3)ccc12 (stereo partly drawn) [Example 11, 1-{7-[1-(2,6-dioxopiperidin-3-yl)-3-methyl-2-oxo-1,3-benzodiazol-4-yl]hept-6-yn-1-yl}-3-methyl-N-{2-[(2R)-1-methylpyrrolidin-2-yl]-1H-pyrrolo[3,2-c]pyridin-6-yl}indazole-6-carboxamide]
IC50 [1]: < 0.1 µM
MLLT1% Degradation @ 0.01 μM [2]: B (Category B: 50%≤B<75% degradation)
MLLT1% Degradation @ 0.1 μM [2]: B (Category B: 50%≤B<75% degradation)
MLLT1% Degradation @ 1 μM [2]: B (Category B: 50%≤B<75% degradation)

Cc1nn(CCCCCCCC#Cc2cccc(C(=O)N[C@H]3CCC(=O)NC3=O)n2)c2cc(C(=O)Nc3cc4[nH]c([C@H]5CCCN5C)cc4cn3)ccc12 [Example 42, 1-(9-(6-(((S)-2,6-dioxopiperidin-3-yl)carbamoyl)pyridin-2-yl)non-8-yn-1-yl)-3-methyl-N-(2-((R)-1-methylpyrrolidin-2-yl)-1H-pyrrolo[3,2-c]pyridin-6-yl)-1H-indazole-6-carboxamide]
IC50 [1]: < 0.1 µM
MLLT1% Degradation @ 0.01 μM [2]: B (Category B: 50%≤B<75% degradation)
MLLT1% Degradation @ 0.1 μM [2]: A (Category A: A≥75% degradation)
MLLT1% Degradation @ 1 μM [2]: A (Category A: A≥75% degradation)

Cc1nn(CCCCCC2CCN(c3cccc4c3C(=O)N(C3CCC(=O)NC3=O)C4=O)CC2)c2cc(C(=O)Nc3cc4[nH]c([C@H]5CCCN5C)cc4cn3)ccc12 (stereo partly drawn) [Example 29, 1-(5-(1-(2-(2,6-dioxopiperidin-3-yl)-1,3-dioxoisoindolin-4-yl)piperidin-4-yl)pentyl)-3-methyl-N-(2-((R)-1-methylpyrrolidin-2-yl)-1H-pyrrolo[3,2-c]pyridin-6-yl)-1H-indazole-6-carboxamide]
IC50 [1]: < 0.1 µM
MLLT1% Degradation @ 0.01 μM [2]: B (Category B: 50%≤B<75% degradation)
MLLT1% Degradation @ 0.1 μM [2]: A (Category A: A≥75% degradation)
MLLT1% Degradation @ 1 μM [2]: A (Category A: A≥75% degradation)

Cc1nn(CCCCC#Cc2cccc3c2CN(C2CCC(=O)NC2=O)C3=O)c2cc(C(=O)Nc3cc4[nH]c([C@H]5CCCN5C)cc4cn3)ccc12 (stereo partly drawn) [Example 46, 1-(6-(2-(2,6-dioxopiperidin-3-yl)-1-oxoisoindolin-4-yl)hex-5-yn-1-yl)-3-methyl-N-(2-((R)-1-methylpyrrolidin-2-yl)-1H-pyrrolo[3,2-c]pyridin-6-yl)-1H-indazole-6-carboxamide]
IC50 [1]: < 0.1 µM
MLLT1% Degradation @ 0.01 μM [2]: A (Category A: A≥75% degradation)
MLLT1% Degradation @ 0.1 μM [2]: A (Category A: A≥75% degradation)
MLLT1% Degradation @ 1 μM [2]: B (Category B: 50%≤B<75% degradation)
